{"source": "patent US4902686A", "about": "“Tricyclic heterocyclic compounds and their use in treating benzodiazepin receptor-related ailments” (A/S Ferrosan, priority 1987, dated 1990)", "data": [{"test_system": "benzodiazepine receptors", "assay": "in vivo displacement of 3H-flunitrazepam from brain benzodiazepine receptors in mice", "parameters": "species or system mice (female, NMR)", "conditions": "i.p. test substance 15 min before 3H-flunitrazepam i.v., dose reducing specific forebrain binding to 50% of control", "from_the_text": "The pharmaceutical properties of the compounds of the invention can be illustrated by determining their capability for displacing radioactive labelled flunitrazepam from benzodiazepine receptors.\nThe displacement activity of the compounds of the invention may be found by determining the ED50 value. The ED50 value represents the dose (mg/kg) of a test substance which causes the specific binding of flunitrazepam to benzodiazepine receptors in a living brain to be reduced to 50% of the control value.\nSuch an in vivo test is carried out as follows:\nPrinciple. Twenty minutes after a dose of ^3 H-flunitrazepam (^3 H-FNM) (200μCi/kg, i.v.) the amount of specific ^3 H-FNM binding to brain benzodiazepine receptors has reached its maximal value.\nTest procedure. Suspensions of test substances (2 mg/ml) are prepared in 5% Duphasol-X (TM Duphar, castor oil-ethylene oxide derivative for emulsifying and solubilizing oil and other water-insoluble substances) by sonification for 10 min using a Branson B15 microtip ultrasonifier (setting 7). Groups of three mice (female, NMR, 18-22 grams) are injected with the test substance at 100 mg/kg intraperitoneally. Fifteen minutes after test substance administration the mice are challenged with 4 μCi intravenously of ^3 H-FNM (70-90 Ci/mole) in 200 μl physiological saline. Twenty minutes after ^3 H-FNM administration mice are sacrificed by decapitation, the forebrains rapidly excised (within 30 sec) and homogenized in 12 ml of icecold 25 mM KH2 PO4, pH 7.1, using an Ultra-Turrax homogenizer fitted with an N 10 shaft. Two aliquots of 1 ml are immediately filtered through Whatman GF/C glassfibre filters and washed with 2×5 ml of the above mentioned buffer. The amounts of radioactivity on the filters are determined by conventional scintillation counting. One group of untreated mice serves as control. One to three mice are injected with 25 μg/kg clonazepam i.p. 30 minutes before ^3 H-FNM to determine the amount of non-specific ^3 H-FNM binding, which should be between 8-15% of total binding. When doses of 100 mg/kg inhibit more than 50% of specific ^3 H-flunitrazepam binding; test substances are administered in doses, which are factors of 3.16 times lower than 100 mg/kg. The ED50 for a test substance is defined as that dose which inhibits 50% of specific ^3 H-FNM binding. Specific binding is the amount of binding in controls minus the amount binding in clonazepam-treated mice.\nResults. The ED50 value is determined from dose response curves. If only one dose of test substance is administered the ED50 value is calculated as follows, provided that the inhibition of specific binding is within the range of 25-75%: [formula] where Co is specific binding in controls and Cx is specific binding in mice treated with test substance.", "units": {"in vivo bind. ED50": "mg/kg"}, "values": [{"smiles": "Cn1c(=O)c2c(-c3nc(C4CC4)no3)ncn2c2cccnc21", "in vivo bind. ED50": 0.9}, {"smiles": "Cn1c(=O)c2c(Oc3ccc(F)cc3)cccc2n2cnc(-c3noc(C4CC4)n3)c12", "in vivo bind. ED50": 2.9}, {"smiles": "CCn1c(=O)c2c(-c3nc(C4CC4)no3)ncn2c2ccccc21", "in vivo bind. ED50": 1.4}, {"smiles": "CCn1c(=O)c2c(-c3noc(C4CC4)n3)ncn2c2cccnc21", "in vivo bind. ED50": 0.7}, {"smiles": "Cc1nc(-c2ncn3c4cccc(C#C[Si](C)(C)C)c4c(=O)n(C)c23)no1", "note": "[4,5-Dihydro-4-methyl-3-(5-methyl-1,2,4-oxadiazol-3-yl)-5-oxo-6-trimethylsilylethynyl-imidazo(1,5-a)quinazoline]", "in vivo bind. ED50": 3.7}]}]}
